Measurements published in PubChem BioAssay AID206 (DTP/NCI, 2004).
“And” between values parts separate entries of the source, which are not always exact repeats. Identical values can stand only once. Inconclusive results are not listed.

Tested on: nude mice, HT29 intrarenal xenograft, tumor weight T/C
Test: NCI In Vivo Anticancer Drug Screen. Data for tumor model HT29;CX-1 Human Adenocarcinoma (MER+) (intrarenal inoculation) in NU/NU Swiss (nude) mice
Conditions: endpoint: mean tumor weight change, higher = larger tumour
Experimental: The antitumor activity of compounds was measured in mice bearing transplantable tumors. Survival or tumor size were measured and the results are expressed as the measurement made in the treated group (T) divided by the measurement made in the vehicle treated control group (C). The tumor model used in this assay is HT29;CX-1 Human Adenocarcinoma (MER+) (intrarenal inoculation) in NU/NU Swiss (nude) mice

[1] = dose: 50.0 mg/kg/injection, schedule: Q01DX010 (sc), vehicle: saline

OCC1OC(n2cnc3c(Cl)ncnc32)C(O)C1O (configuration not stated)
T/C (dose: 300.0 mg/kg/injection, schedule: Q04DX004 (sc), vehicle: saline): 94 % of control | T/C (dose: 600.0 mg/kg/injection, schedule: Q04DX004 (sc), vehicle: saline): 84 % of control | T/C (dose: 1200.0 mg/kg/injection, schedule: Q04DX004 (sc), vehicle: saline): 150 % of control

CC(C)(C)N1CC1CNC(=O)C(=O)NCC1CN1C(C)(C)C (configuration not stated)
T/C (dose: 25.0 mg/kg/injection, schedule: Q04DX004 (sc), vehicle: saline with Tween-80): 109 % of control

COc1ccc(C(=O)c2no[n+]([O-])c2C(=O)c2ccc(OC)cc2)cc1
T/C (dose: 200.0 mg/kg/injection, schedule: Q04DX004 (sc), vehicle: saline with Tween-80): 182 % of control | T/C (dose: 400.0 mg/kg/injection, schedule: Q04DX004 (sc), vehicle: saline with Tween-80): 117 % of control | T/C (dose: 800.0 mg/kg/injection, schedule: Q04DX004 (sc), vehicle: saline with Tween-80): 71 % of control | T/C (dose: 1600.0 mg/kg/injection, schedule: Q04DX004 (sc), vehicle: saline with Tween-80): 83 % of control

Nc1cc2[nH]cnc2c(=O)[nH]1
T/C (dose: 25.0 mg/kg/injection, schedule: Q01DX010 (sc), vehicle: saline): 62 % of control | T/C [1]: 112 % of control

COC1C(/C=C/C(C)=O)OC2OC(C)(C)OC21 (configuration not stated)
T/C (dose: 75.0 mg/kg/injection, schedule: Q04DX004 (sc), vehicle: suspension in saline): 74 % of control | T/C (dose: 150.0 mg/kg/injection, schedule: Q04DX004 (sc), vehicle: suspension in saline): 106 % of control | T/C (dose: 300.0 mg/kg/injection, schedule: Q04DX004 (sc), vehicle: suspension in saline): 54 % of control | T/C (dose: 600.0 mg/kg/injection, schedule: Q04DX004 (sc), vehicle: suspension in saline): 20 % of control

Cc1cc(NCCCCCCNc2cc(C)nc3cc(N(C)C)ccc23)c2ccc(N(C)C)cc2n1
T/C (dose: 37.5 mg/kg/injection, schedule: Q04DX004 (sc), vehicle: distilled water + Tween-80 + alcohol): 112 % of control | T/C (dose: 75.0 mg/kg/injection, schedule: Q04DX004 (sc), vehicle: distilled water + Tween-80 + alcohol): 42 % of control

O=c1[nH]c(=O)n([C@H]2CCCO2)cc1F
T/C (dose: 100.0 mg/kg/injection, schedule: Q01DX010 (sc), vehicle: Klucel (hydroxypropylcellulose) (HPC)): 55 % of control | T/C (dose: 200.0 mg/kg/injection, schedule: Q01DX010 (sc), vehicle: Klucel (hydroxypropylcellulose) (HPC)): 103 % of control

N[C@@H](Cc1ccc(N(CCCl)CCCl)cc1)C(=O)O
T/C (dose: 4.0 mg/kg/injection, schedule: Q04DX004 (ip), vehicle: saline): 47 % of control | T/C (dose: 6.0 mg/kg/injection, schedule: Q04DX004 (ip), vehicle: saline): 9 % of control | T/C (dose: 9.0 mg/kg/injection, schedule: Q04DX004 (ip), vehicle: saline): -5 % of control

CCCCCC[C@H]([C@H](C)O)n1cnc2c(N)ncnc21
T/C [1]: 26 % of control | T/C (dose: 100.0 mg/kg/injection, schedule: Q01DX010 (sc), vehicle: saline): 61 % of control | T/C (dose: 200.0 mg/kg/injection, schedule: Q01DX010 (sc), vehicle: saline): 56 % of control

Cc1ccc2nc(-c3ccc4nc(-c5ccc(N=Nc6ccc(-c7nc8ccc(-c9nc%10ccc(C)c(S(=O)(=O)O)c%10s9)cc8s7)cc6)cc5)sc4c3)sc2c1S(=O)(=O)O
T/C (dose: 200.0 mg/kg/injection, schedule: Q04DX004 (sc), vehicle: suspension in saline): 190 % of control | T/C (dose: 400.0 mg/kg/injection, schedule: Q04DX004 (sc), vehicle: suspension in saline): 109 % of control | T/C (dose: 800.0 mg/kg/injection, schedule: Q04DX004 (sc), vehicle: suspension in saline): 221 % of control | T/C (dose: 1600.0 mg/kg/injection, schedule: Q04DX004 (sc), vehicle: suspension in saline): 50 % of control

CC(C)CCCCCCCCCCCCC(=O)NCC(=O)NC1C(O)C(O)C(Nc2ncnc3nc[nH]c23)OC1C(O)CO (configuration not stated)
T/C (dose: 0.75 mg/kg/injection, schedule: Q04DX004 (sc), vehicle: suspension in saline): 85 % of control | T/C (dose: 0.8 mg/kg/injection, schedule: Q01DX010 (sc), vehicle: saline): 21 % of control and 24 % of control | T/C (dose: 1.5 mg/kg/injection, schedule: Q04DX004 (sc), vehicle: suspension in saline): 47 % of control | T/C (dose: 3.0 mg/kg/injection, schedule: Q04DX004 (sc), vehicle: suspension in saline): 10 % of control and 23 % of control | T/C (dose: 6.0 mg/kg/injection, schedule: Q04DX004 (sc), vehicle: suspension in saline): 15 % of control

Cc1cc(=NO)cc(C)n1O
T/C (dose: 150.0 mg/kg/injection, schedule: Q04DX004 (sc), vehicle: distilled water + alcohol): 73 % of control | T/C (dose: 300.0 mg/kg/injection, schedule: Q04DX004 (sc), vehicle: distilled water + alcohol): 80 % of control | T/C (dose: 600.0 mg/kg/injection, schedule: Q04DX004 (sc), vehicle: distilled water + alcohol): 87 % of control | T/C (dose: 1200.0 mg/kg/injection, schedule: Q04DX004 (sc), vehicle: distilled water + alcohol): 65 % of control
